Data reported in PubChem BioAssay AID1963975 (Molecular Pharmacology Branch, DTP, NCI, 2024).

Test system: 624824-186-R-J2-PDC multicell spheroids, viability
Test: Anticancer human tumor 624824-186-R-J2-PDC patient-derived colon adenocarcinoma cell line growth inhibition [PI3K]
Conditions: for IC50: curve of first compound; for viability, T/C: stronger effect = lower value
Summary of the method: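 Three cell types, namely tumor cells, endothelial cells and mesenchymal stem cells, formed each spheroid. Combinations with four PI3K inhibitors were screened at clinically achievable concentrations decreasing by half-log, and spheroid viability was recorded.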

[1] = second compound 0.0316 µM, first compound 0.000316 µM
[2] = second compound 0.0316 µM, first compound 0.001 µM
[3] = second compound 0.0316 µM, first compound 0.00316 µM
[4] = second compound 0.0316 µM, first compound 0.01 µM
[5] = second compound 0.0316 µM, first compound 0.0316 µM
[6] = second compound 0.0316 µM, first compound 0.1 µM
[7] = second compound 0.1 µM, first compound 0.000316 µM
[8] = second compound 0.1 µM, first compound 0.001 µM
[9] = second compound 0.1 µM, first compound 0.00316 µM
[10] = second compound 0.1 µM, first compound 0.01 µM
[11] = second compound 0.1 µM, first compound 0.0316 µM
[12] = second compound 0.1 µM, first compound 0.1 µM
[13] = second compound 0.316 µM, first compound 0.000316 µM
[14] = second compound 0.316 µM, first compound 0.001 µM
[15] = second compound 0.316 µM, first compound 0.00316 µM
[16] = second compound 0.316 µM, first compound 0.01 µM
[17] = second compound 0.316 µM, first compound 0.0316 µM
[18] = second compound 0.316 µM, first compound 0.1 µM
[19] = second compound 1 µM, first compound 0.000316 µM
[20] = second compound 1 µM, first compound 0.001 µM
[21] = second compound 1 µM, first compound 0.00316 µM
[22] = second compound 1 µM, first compound 0.01 µM
[23] = second compound 1 µM, first compound 0.0316 µM
[24] = second compound 1 µM, first compound 0.1 µM
[25] = second compound 3.16 µM, first compound 0.000316 µM
[26] = second compound 3.16 µM, first compound 0.001 µM
[27] = second compound 3.16 µM, first compound 0.00316 µM
[28] = second compound 3.16 µM, first compound 0.01 µM
[29] = second compound 3.16 µM, first compound 0.0316 µM
[30] = second compound 3.16 µM, first compound 0.1 µM
[31] = second compound 10 µM, first compound 0.000316 µM
[32] = second compound 10 µM, first compound 0.001 µM
[33] = second compound 10 µM, first compound 0.00316 µM
[34] = second compound 10 µM, first compound 0.01 µM
[35] = second compound 10 µM, first compound 0.0316 µM
[36] = second compound 10 µM, first compound 0.1 µM
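Note: spheroids exposed to agents for 7 days before viability read.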
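Throughout, for viability, T/C: 100% = DMSO vehicle treated spheroids.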

`CC(=O)c1c(C)c2cnc(Nc3ccc(N4CCNCC4)cn3)nc2n(C2CCCC2)c1=O` + CC(Nc1ncnc2nc[nH]c12)c1cc2cccc(Cl)c2c(=O)n1-c1ccccc1 was tested, and the IC50 (second compound 0.0316 µM) was > 100 nM, the IC50 (second compound 0.1 µM) was > 100 nM and the IC50 (second compound 0.316 µM) was > 100 nM. The IC50 (second compound 1 µM) was > 100 nM, the IC50 (second compound 3.16 µM) was > 100 nM and the IC50 (second compound 10 µM) was > 100 nM. It also gave a viability, T/C [1] of 78.8%, a viability, T/C [2] of 118% and a viability, T/C [3] of 98.7%. For the same molecule, the viability, T/C [4] was 98.5%, the viability, T/C [5] was 80.5% and the viability, T/C [6] was 86.1%. The viability, T/C [7] was 107%, the viability, T/C [8] was 85.2% and the viability, T/C [9] was 84.4%. It also gave a viability, T/C [10] of 79.9%, a viability, T/C [11] of 90% and a viability, T/C [12] of 93.5%. The viability, T/C [13] was 121%, the viability, T/C [14] was 134% and the viability, T/C [15] was 79.8%. It also gave a viability, T/C [16] of 77.5%, a viability, T/C [17] of 78.2% and a viability, T/C [18] of 93%. For the same molecule, the viability, T/C [19] was 111%, the viability, T/C [20] was 96.6% and the viability, T/C [21] was 89.5%. It also gave a viability, T/C [22] of 108%, a viability, T/C [23] of 88.6% and a viability, T/C [24] of 92.6%. For the same molecule, the viability, T/C [25] was 98.8%, the viability, T/C [26] was 83.6% and the viability, T/C [27] was 91.9%. For the same molecule, the viability, T/C [28] was 111%, the viability, T/C [29] was 88.5% and the viability, T/C [30] was 84%. The viability, T/C [31] was 112%, the viability, T/C [32] was 110% and the viability, T/C [33] was 107%. The viability, T/C [34] was 96.3%, the viability, T/C [35] was 92.4% and the viability, T/C [36] was 94%.
In the case of `CC(C)n1nc(-c2ccc3oc(N)nc3c2)c2c(N)ncnc21` + CC(Nc1ncnc2nc[nH]c12)c1cc2cccc(Cl)c2c(=O)n1-c1ccccc1, the IC50 (second compound 0.0316 µM) is reported as > 100 nM, the IC50 (second compound 0.1 µM) is reported as > 100 nM and the IC50 (second compound 0.316 µM) is reported as > 100 nM. The IC50 (second compound 1 µM) was > 100 nM, the IC50 (second compound 3.16 µM) was > 100 nM and the IC50 (second compound 10 µM) was > 100 nM. It also gave a viability, T/C [1] of 108%, a viability, T/C [2] of 113% and a viability, T/C [3] of 83%. It also gave a viability, T/C [4] of 76.7%, a viability, T/C [5] of 75.7% and a viability, T/C [6] of 77.9%. The viability, T/C [7] was 94.3%, the viability, T/C [8] was 81.9% and the viability, T/C [9] was 105%. The viability, T/C [10] was 85.8%, the viability, T/C [11] was 81.5% and the viability, T/C [12] was 75.2%. It also gave a viability, T/C [13] of 87.5%, a viability, T/C [14] of 77.3% and a viability, T/C [15] of 73.6%. For the same molecule, the viability, T/C [16] was 83.3%, the viability, T/C [17] was 86.8% and the viability, T/C [18] was 75.8%. The viability, T/C [19] was 93.2%, the viability, T/C [20] was 99% and the viability, T/C [21] was 91.6%. For the same molecule, the viability, T/C [22] was 79.2%, the viability, T/C [23] was 84.8% and the viability, T/C [24] was 90.6%. It also gave a viability, T/C [25] of 101%, a viability, T/C [26] of 90.5% and a viability, T/C [27] of 82.3%. It also gave a viability, T/C [28] of 90.5%, a viability, T/C [29] of 87.7% and a viability, T/C [30] of 78.2%. It also gave a viability, T/C [31] of 109%, a viability, T/C [32] of 96.7% and a viability, T/C [33] of 82.7%. For the same molecule, the viability, T/C [34] was 95.5%, the viability, T/C [35] was 81.2% and the viability, T/C [36] was 78.6%.
